Publication PMC9393165 (Scientific Reports, 2022)
Where two headings read alike, the source gives them in different places. Marks after values point to notes of the source that are not given here.

Experiment: Tacrolimus whole blood concentration, trough and 12-h AUC after kidney transplantation (chemiluminescent microparticle immunoassay)
Assay type: in vivo, human
Conditions: for C0 / AUC: human, whole blood, oral
Description: This prospective, randomized, double-blind, placebo-controlled study was carried out in four parallel groups of KTRs. […] The randomization schedule was concealed in sequentially numbered, sealed, opaque envelopes, and kept in a locked cabinet in the central pharmacy of Siriraj Hospital. Envelopes were opened sequentially only after enrollment of each participant. The diltiazem and placebo containers, which were issued with a medication number and assigned to consecutive patients in a sequential order, were tamper-proof, equal in weight, and similar in appearance. A pharmacist not involved in the care of the study patients did the randomization, distributed the study agents, and held the trial codes, which were disclosed after the study. Physicians, nurses, other care providers, and the study patients were unaware of the group allocations.
All participants received oral, immediate-release tacrolimus (Prograf®; Astellas, Kerry, Ireland). According to Siriraj Hospital protocol, the initial dose (0.05 mg/kg every 12 h) of tacrolimus was started 2 days before KT (day − 2) and subsequently adjusted after KT based on efficacy and toxicity and to maintain morning trough concentrations of 7 to 10 ng/mL in standard risk patients and 10 to 12 ng/mL in high-risk patients during the first week after transplantation. Participants also received either mycophenolate mofetil (Cellcept®; F Hoffmann-La Roche Ltd, Basel, Switzerland or Immucept®; Intas Pharmaceuticals Ltd., Gujarat, India) or mycophenolate sodium (Myfortic®; Novartis Pharma Stein, Switzerland for Novartis AG, Basel, Switzerland) at the dosage equivalent to 2 g/day of mycophenolate mofetil. A tapered corticosteroid regimen was administered consisting of an intravenous bolus of 500 mg of methylprednisolone (Solu-medrol®; Novartis Pharma Stein, Switzerland for Novartis AG, Basel, Switzerland) on day 0, 250 mg on day 1, 125 mg on day 2 followed by 40 mg/day of prednisolone on day 4 after KT. The subsequent prednisolone doses were gradually tapered thereafter. Induction therapy with basiliximab (Simulect®; Novartis Pharma AG, Basel, Switzerland) was allowed.
All patients received a fixed dose of omeprazole 40 mg/day.
[…] Samples were collected in EDTA tubes and stored at 4 degrees Celsius until analysis. Whole blood tacrolimus concentrations were determined within the same day of blood collection by using a chemiluminescent microparticle immunoassay method with […] system® i2000 (Abbott, Abbott Diagnostic, USA). The method was linear in the concentration range up to 30 ng/mL, the limits of quantification were 0.8 ng/mL, and the coefficient of variation of within run precision and between run precision were less than 10%. Mean recovery was 100 ± 10% according to the manufacturer’s information.
For calculation of AUC/D and C0/D, values of AUC and C0 were dose-adjusted by dividing the observed values by the dose recorded on the day of blood collection. Early-morning blood pressures were measured on the same day of blood collection for pharmacokinetic analysis by a ward nurse as part of a routine examination, during rest in a seated position with a calibrated and well-maintained automatic sphygmomanometer. Delayed graft function (DGF) was defined as failure of the kidney graft to function immediately, with the need for dialysis in the first 7 days post-KT. Episode of biopsy-proven acute rejection (BPAR) during 3 months post-KT was diagnosed based on histologic findings in indication kidney graft biopsy according to Banff 2015 criteria.

[1] = day 1 post-transplantation, CYP3A5 expressers, diltiazem 30 mg every 12 h (n = 11), median (IQR)
[2] = day 1 post-transplantation, CYP3A5 expressers, placebo (n = 12), median (IQR)
[3] = day 1 post-transplantation, CYP3A5 non-expressers, diltiazem 30 mg every 12 h (n = 9), median (IQR)
[4] = day 1 post-transplantation, CYP3A5 non-expressers, placebo (n = 8), median (IQR)
[5] = day 3 post-transplantation, CYP3A5 expressers, diltiazem 30 mg every 12 h (n = 11), median (IQR)
[6] = day 3 post-transplantation, CYP3A5 expressers, placebo (n = 12), median (IQR)
[7] = day 3 post-transplantation, CYP3A5 non-expressers, diltiazem 30 mg every 12 h (n = 9), median (IQR)
[8] = day 3 post-transplantation, CYP3A5 non-expressers, placebo (n = 8), median (IQR)
[9] = day 7, all 40 KTRs, median (IQR)
[10] = day 7 post-transplantation, CYP3A5 expressers, diltiazem 30 mg every 12 h (n = 11), median (IQR)
[11] = day 7 post-transplantation, CYP3A5 expressers, placebo (n = 12), median (IQR)
[12] = day 7 post-transplantation, CYP3A5 non-expressers, diltiazem 30 mg every 12 h (n = 9), median (IQR)
[13] = day 7 post-transplantation, CYP3A5 non-expressers, placebo (n = 8), median (IQR)

C=CC[C@@H]1/C=C(\C)C[C@H](C)C[C@H](OC)[C@H]2O[C@@](O)(C(=O)C(=O)N3CCCC[C@H]3C(=O)O[C@H](/C(C)=C/[C@@H]3CC[C@@H](O)[C@H](OC)C3)[C@H](C)[C@@H](O)CC1=O)[C@H](C)C[C@@H]2OC [Tacrolimus]
C0/D [1]: 3.3 (2.6, 4.5) ng/mL per mg
C0/Daily dose [1]: 1.6 (1.3, 2.3) ng/mL per mg/day
C0/D [2]: 2.2 (1.3, 2.8) ng/mL per mg
C0/Daily dose [2]: 1.1 (0.6, 1.4) ng/mL per mg/day
C0/D [3]: 3.8 (2.7, 7.2)^c ng/mL per mg
C0/Daily dose [3]: 1.9 (1.3, 3.6)^c ng/mL per mg/day
C0/D [4]: 3.8 (2.0, 5.0) ng/mL per mg
C0/Daily dose [4]: 1.9 (1.0, 2.5) ng/mL per mg/day
C0/D [5]: 3.7 (2.4, 4.5)^c ng/mL per mg
C0/Daily dose [5]: 1.8 (1.2, 2.2)^c ng/mL per mg/day
C0/D [6]: 1.8 (1.1, 2.0) ng/mL per mg
C0/Daily dose [6]: 0.9 (0.6, 1.0) ng/mL per mg/day
C0/D [7]: 6.4 (4.1, 8.8)^c ng/mL per mg
C0/Daily dose [7]: 3.2 (2.0, 4.4)^c ng/mL per mg/day
C0/D [8]: 3.4 (2.7, 5.8)^c ng/mL per mg
C0/Daily dose [8]: 1.7 (1.4, 2.9)^c ng/mL per mg/day
AUC/D [9]: 44.9 (37.1, 65.3) ng*h/mL per mg
C0/D [9]: 2.5 (1.8, 3.7) ng/mL per mg
C0, range (day 7, all 40 KTRs, range): 5.0 to 13.2 ng/mL
AUC/D (dose-adjusted area under the 12-h curve) (day 7 post-transplantation, CYP3A5 expressers, diltiazem 30 mg every 12 h (EXdtz, n = 11), median (IQR)): 43.6 (37.0, 50.5) ng*h/mL per mg
AUC/D (dose-adjusted area under the 12-h curve) (day 7 post-transplantation, CYP3A5 expressers, diltiazem 30 mg every 12 h (EXdtz, n = 11), median (IQR), listed as tacrolimus): 43.6 ng*h/mL per mg
C0/D [10]: 1.9 (1.8, 3.2) ng/mL per mg
C0/Daily dose [10]: 1.0 (0.9, 1.6) ng/mL per mg/day
AUC/D (dose-adjusted area under the 12-h curve) (day 7 post-transplantation, CYP3A5 expressers, placebo (EXplb, n = 12), median (IQR)): 34.9 (31.6, 38.5) ng*h/mL per mg
AUC/D (dose-adjusted area under the 12-h curve) (day 7 post-transplantation, CYP3A5 expressers, placebo (EXplb, n = 12), median (IQR), listed as tacrolimus): 34.9 ng*h/mL per mg
C0/D [11]: 2.0 (1.4, 2.5) ng/mL per mg
C0/Daily dose [11]: 1.0 (0.7, 1.2) ng/mL per mg/day
AUC/D (dose-adjusted area under the 12-h curve) (day 7 post-transplantation, CYP3A5 non-expressers, diltiazem 30 mg every 12 h (NEdtz, n = 9), median (IQR)): 71.1 (54.9, 100.7)^c ng*h/mL per mg
AUC/D (dose-adjusted area under the 12-h curve) (day 7 post-transplantation, CYP3A5 non-expressers, diltiazem 30 mg every 12 h (NEdtz, n = 9), median (IQR), listed as tacrolimus): 71.1 ng*h/mL per mg
C0/D [12]: 4.2 (2.8, 6.0)^c ng/mL per mg
C0/Daily dose [12]: 2.1 (1.4, 3.0)^c ng/mL per mg/day
AUC/D (dose-adjusted area under the 12-h curve) (day 7 post-transplantation, CYP3A5 non-expressers, placebo (NEplb, n = 8), median (IQR)): 49.4 (43.0, 62.9)^c ng*h/mL per mg
AUC/D (dose-adjusted area under the 12-h curve) (day 7 post-transplantation, CYP3A5 non-expressers, placebo (NEplb, n = 8), median (IQR), listed as tacrolimus): 49.4 ng*h/mL per mg
C0/D [13]: 2.8 (2.5, 3.4) ng/mL per mg
C0/Daily dose [13]: 1.4 (1.2, 1.7) ng/mL per mg/day
C0 (30 mg, day 1 post-transplantation, CYP3A5 expressers, diltiazem 30 mg every 12 h (n = 11), mean ± SD): 10.9 ± 3.7 ng/mL
C0 (30 mg, day 1 post-transplantation, CYP3A5 non-expressers, diltiazem 30 mg every 12 h (n = 9), mean ± SD): 13.1 ± 7.4 ng/mL
C0 (30 mg, day 3 post-transplantation, CYP3A5 expressers, diltiazem 30 mg every 12 h (n = 11), median (IQR)): 9.3 ng/mL
C0 (30 mg, day 3 post-transplantation, CYP3A5 non-expressers, diltiazem 30 mg every 12 h (n = 9), median (IQR)): 11.9 ng/mL
C0 (30 mg, day 7 post-transplantation, CYP3A5 expressers, diltiazem 30 mg every 12 h (n = 11), mean ± SD): 7.4 ± 2.1 ng/mL
AUC (30 mg, day 7 post-transplantation, CYP3A5 expressers, diltiazem 30 mg every 12 h (n = 11), mean ± SD, read-out: AUC (area under the concentration over 12-h curve)): 138 ± 29.6 ng·h/mL
C0 (30 mg, day 7 post-transplantation, CYP3A5 non-expressers, diltiazem 30 mg every 12 h (n = 9), mean ± SD): 8.4 ± 1.8 ng/mL
AUC (30 mg, day 7 post-transplantation, CYP3A5 non-expressers, diltiazem 30 mg every 12 h (n = 9), mean ± SD, read-out: AUC (area under the concentration over 12-h curve)): 148 ± 25.5 ng·h/mL
C0 (day 1 post-transplantation, CYP3A5 expressers, placebo (n = 12), mean ± SD): 7 ± 3.2 ng/mL
C0 (day 1 post-transplantation, CYP3A5 non-expressers, placebo (n = 8), mean ± SD): 12.6 ± 7.2 ng/mL
C0 [6]: 6.2 ng/mL
C0 [8]: 9.4 ng/mL
C0 (day 7, all 40 KTRs, mean ± SD): 8.4 ± 2.1 ng/mL
AUC (day 7, all 40 KTRs, mean ± SD, read-out: AUC): 154 ± 33.2 ng·h/mL
AUC (day 7, all 40 KTRs, range, read-out: AUC, range): 96.9 to 233 ng·h/mL
C0 (day 7 post-transplantation, CYP3A5 expressers, placebo (n = 12), mean ± SD): 9.2 ± 1.6 ng/mL
AUC (day 7 post-transplantation, CYP3A5 expressers, placebo (n = 12), mean ± SD, read-out: AUC (area under the concentration over 12-h curve)): 169 ± 32.2 ng·h/mL
C0 (day 7 post-transplantation, CYP3A5 non-expressers, placebo (n = 8), mean ± SD): 8.6 ± 2.5 ng/mL
AUC (day 7 post-transplantation, CYP3A5 non-expressers, placebo (n = 8), mean ± SD, read-out: AUC (area under the concentration over 12-h curve)): 159 ± 40.7 ng·h/mL
